Data as given in patent US8183239B2, “Substituted piperazines and piperidines as modulators of the neuropeptide Y2 receptor” (Janssen Pharmaceutica NV, priority 2005, dated 2012).

What follows are molecules tested against T1, Y2 receptors (Homo sapiens, UniProt P49146) (assay: Radioligand binding assay ([125I]PYY, KAN-Ts cell membranes)). Conditions: Table 2, [125I]PYY 80 pM, average of results, read-out: IC50.
T1 construct: endogenous in cells; host or cells: KAN-Ts cells (membranes)
T1 sequence (P49146 1-381): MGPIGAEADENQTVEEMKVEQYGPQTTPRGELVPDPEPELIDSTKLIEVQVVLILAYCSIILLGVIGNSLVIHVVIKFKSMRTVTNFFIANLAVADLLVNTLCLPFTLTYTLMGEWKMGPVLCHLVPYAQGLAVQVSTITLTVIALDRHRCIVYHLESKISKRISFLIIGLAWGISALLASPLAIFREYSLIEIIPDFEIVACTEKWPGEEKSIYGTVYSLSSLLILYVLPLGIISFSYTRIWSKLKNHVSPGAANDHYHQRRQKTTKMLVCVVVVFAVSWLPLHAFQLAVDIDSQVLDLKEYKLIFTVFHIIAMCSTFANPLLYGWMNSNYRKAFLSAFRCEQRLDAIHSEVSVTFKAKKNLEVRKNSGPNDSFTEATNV
How it was run: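 Membranes from KAN-Ts cells endogenously expressing Y2 incubated 1 h at rt with 80 pM [^125I]PYY ± test compound in HEPES buffer with NaCl, Ca^2+ and Mg^2+. Bound radioactivity collected by filtration; specific binding defined with […]. IC50 from sigmoidal fit, averaged over 3-8 duplicate experiments.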

| Compound | IC50 [nM] |
| --- | --- |
| CCC(CC)C(=O)Nc1ccc(N2CCN(C(C)c3ccccc3)CC2)c(F)c1 (stereo not shown) [Example 267, 2-Ethyl-N-{3-fluoro-4-[4-(1-phenyl-ethyl)-piperazin-1-yl]-phenyl}-butyramide] | 1270 |
| CCC(CC)C(=O)Nc1ccc(N2CCN(Cc3ccccc3)CC2)c(F)c1 [Example 268, N-[4-(4-Benzyl-piperazin-1-yl)-3-fluoro-phenyl]-2-ethyl-butyramide] | 1400 |
| CCC(CC)C(=O)Nc1ccc(N2CCN(Cc3ccc4c(c3)OCO4)C(C(=O)OC)C2)c(F)c1 (stereo not shown) [Example 270, 1-Benzo[1,3]dioxol-5-ylmethyl-4-[4-(2-ethyl-butyrylamino)-2-fluoro-phenyl]-piperazine-2-carboxylic acid methyl ester] | 3000 |
| CCC(CC)C(=O)Nc1ccc(N2CCN(Cc3ccccc3)C(C(=O)OC)C2)c(F)c1 (stereo not shown) [Example 271, 1-Benzyl-4-[4-(2-ethyl-butyrylamino)-2-fluoro-phenyl]-piperazine-2-carboxylic acid methyl ester] | 4000 |
| CCC(CC)C(=O)Nc1ccc(N2CC3CC2CN3C(C(=O)N(CC)CC)c2ccccc2)c(F)c1 (stereo not shown) [Example 272, N-{4-[5-(Diethylcarbamoyl-phenyl-methyl)-2,5-diaza-bicyclo[2.2.1]heptyl]-3-fluoro-phenyl}-2-ethyl-butyramide] | 4000 |
| CCC(CC)C(=O)Nc1ccc(N2CCN(Cc3cc(F)cc(F)c3)C(C(=O)OC)C2)c(F)c1 (stereo not shown) [Example 273, 1-(3,5-Difluoro-benzyl)-4-[4-(2-ethyl-butyrylamino)-2-fluoro-phenyl]-piperazine-2-carboxylic acid methyl ester] | 7000 |
| CCN(CC)C(=O)C(c1ccccc1)N1CCN(c2ccc(N3CCCC3=O)cc2F)CC1 (stereo not shown) [Example 274, N,N-Diethyl-2-{4-[2-fluoro-4-(2-oxo-pyrrolidin-1-yl)-phenyl]-piperazin-1-yl}-2-phenyl-acetamide] | 1600 |
| CCN(CC)C(=O)Cc1ccc(N2CCN(C(C(=O)N(CC)CC)c3ccccc3)CC2)c(F)c1 (stereo not shown) [Example 284] | 1500 |
| CCN(CC)C(=O)C(c1ccccc1)N1CCN(c2ccc(CC(=O)NCc3ccccc3)cc2F)CC1 (stereo not shown) [Example 285] | 1900 |
| CCN(CC)C(=O)C(c1ccccc1)N1CCN(c2ccc(CC(=O)N(C)Cc3ccccc3)cc2F)CC1 (stereo not shown) [Example 286] | 2100 |
| CCN(Cc1ccccc1)C(=O)Cc1ccc(N2CCN(C(C(=O)N(CC)CC)c3ccccc3)CC2)c(F)c1 (stereo not shown) [Example 287] | 2200 |
| CCC(CC)NC(=O)Cc1ccc(N2CCN(C(C(=O)N3CCC(F)(F)C3)c3ccccc3)CC2)c(F)c1 (stereo not shown) [Example 288, 2-(4-{4-[2-(3,3-Difluoro-pyrrolidin-1-yl)-2-oxo-1-phenyl-ethyl]-piperazin-1-yl}-3-fluoro-phenyl)-N-(1-ethyl-propyl)-acetamide] | 2100 |
| CCN(CC)C(=O)Cc1ccc(N2CCN(C(C(=O)N3CCC(F)(F)C3)c3ccccc3)CC2)c(F)c1 (stereo not shown) [Example 289, 2-(4-{4-[2-(3,3-Difluoro-pyrrolidin-1-yl)-2-oxo-1-phenyl-ethyl]-piperazin-1-yl}-3-fluoro-phenyl)-N,N-diethyl-acetamide] | 3450 |
| CCNC(=O)Cc1ccc(N2CCN(C(C(=O)N(CC)CC)c3ccccc3)CC2)c(F)c1 (stereo not shown) [Example 290, N,N-Diethyl-2-[4-(4-ethylcarbamoylmethyl-2-fluoro-phenyl)-piperazin-1-yl]-2-phenyl-acetamide] | 4300 |
| CCN(CC)C(=O)C(c1ccccc1)N1CCN(c2ccc(CC(=O)NC3CCCC3)cc2F)CC1 (stereo not shown) [Example 291, 2-[4-(4-Cyclopentylcarbamoylmethyl-2-fluoro-phenyl)-piperazin-1-yl]-N,N-diethyl-2-phenyl-acetamide] | 8700 |

Now those with a lower IC50, led by results:

| IC50 [nM] | Compound |
| --- | --- |
| 68 | CCC(CC)C(=O)Nc1ccc(N2CCN(C(C(=O)N(CC)CC)c3ccccc3)C(C)C2)c(F)c1 (stereo not shown) [Example 257, N-{4-[4-(Diethylcarbamoyl-phenyl-methyl)-3-methyl-piperazin-1-yl]-3-fluoro-phenyl}-2-ethyl-butyramide] |
| 145 | CCC(CC)C(=O)Nc1ccc(N2CCN(C(C(=O)N(CC)CC)c3ccccc3)CC2C)c(F)c1 (stereo not shown) [Example 258] |
| 70 | CCC(CC)C(=O)Nc1ccc(N2CCN(C(C(=O)c3ccccc3)c3ccccc3)CC2)c(F)c1 (stereo not shown) [Example 259, 2-Ethyl-N-{3-fluoro-4-[4-(2-oxo-1,2-diphenyl-ethyl)-piperazin-1-yl]-phenyl}-butyramide] |
| 100 | CCC(CC)C(=O)Nc1ccc(N2CCN(C(C(=O)N(CC)CC)c3ccccn3)CC2)c(F)c1 (stereo not shown) [Example 260, N-{4-[4-(Diethylcarbamoyl-pyridin-2-yl-methyl)-piperazin-1-yl]-3-fluoro-phenyl}-2-ethyl-butyramide] |
| 130 | CCC(CC)C(=O)Nc1ccc(N2CCN(C(C(=O)N3CCC(F)(F)C3)c3ccccn3)CC2)c(F)c1 (stereo not shown) [Example 261, N-(4-{4-[2-(3,3-Difluoro-pyrrolidin-1-yl)-2-oxo-1-pyridin-2-yl-ethyl]-piperazin-1-yl}-3-fluoro-phenyl)-2-ethyl-butyramide] |
| 162 | CCC(CC)C(=O)Nc1ccc(N2CCN(C(C(=O)OC)c3ccc(O)cc3)CC2)c(F)c1 (stereo not shown) [Example 262, {4-[4-(2-Ethyl-butyrylamino)-2-fluoro-phenyl]-piperazin-1-yl}-(4-hydroxy-phenyl)-acetic acid methyl ester] |
| 250 | CCC(CC)C(=O)Nc1ccc(N2CCN(C(C(=O)OC)c3ccc(OC)cc3)CC2)c(F)c1 (stereo not shown) [Example 263, {4-[4-(2-Ethyl-butyrylamino)-2-fluoro-phenyl]-piperazin-1-yl}-(4-methoxy-phenyl)-acetic acid methyl ester] |
| 550 | CCC(CC)C(=O)Nc1ccc(N2CCN(C(C(=O)OC)c3ccccn3)CC2)c(F)c1 (stereo not shown) [Example 264, {4-[4-(2-Ethyl-butyrylamino)-2-fluoro-phenyl]-piperazin-1-yl}-pyridin-2-yl-acetic acid methyl ester] |
| 785 | CCC(CC)C(=O)Nc1ccc(N2CCN(C(CO)c3ccccc3)CC2)c(F)c1 (stereo not shown) [Example 266, 2-Ethyl-N-{3-fluoro-4-[4-(2-hydroxy-1-phenyl-ethyl)-piperazin-1-yl]-phenyl}-butyramide] |
| 142 | CCN(CC)C(=O)C(c1ccccc1)N1CCN(c2ccc(CC(=O)N3CCCCC3c3ccccc3)cc2F)CC1 (stereo not shown) [Example 275, N,N-Diethyl-2-(4-{2-fluoro-4-[2-oxo-2-(2-phenyl-piperidin-1-yl)-ethyl]-phenyl}-piperazin-1-yl)-2-phenyl-acetamide] |
| 200 | CCN(CC)C(=O)C(c1ccccc1)N1CCN(c2ccc(CC(=O)N3CCCC3c3ccccc3)cc2F)CC1 (stereo not shown) [Example 276, N,N-Diethyl-2-(4-{2-fluoro-4-[2-oxo-2-(2-phenyl-pyrrolidin-1-yl)-ethyl]-phenyl}-piperazin-1-yl)-2-phenyl-acetamide] |
| 320 | CCC1CCCCN1C(=O)Cc1ccc(N2CCN(C(C(=O)N(CC)CC)c3ccccc3)CC2)c(F)c1 (stereo not shown) [Example 277, N,N-Diethyl-2-(4-{4-[2-(2-ethyl-piperidin-1-yl)-2-oxo-ethyl]-2-fluoro-phenyl}-piperazin-1-yl)-2-phenyl-acetamide] |
| 320 | CCN(CC)C(=O)C(c1ccccc1)N1CCN(c2ccc(CC(=O)N(C)Cc3ccco3)cc2F)CC1 (stereo not shown) [Example 278, N,N-Diethyl-2-(4-{2-fluoro-4-[(furan-2-ylmethyl-methyl-carbamoyl)-methyl]-phenyl}-piperazin-1-yl)-2-phenyl-acetamide] |
| 540 | CCN(CC)C(=O)C(c1ccccc1)N1CCN(c2ccc(CC(=O)N3C(C)CCC3C)cc2F)CC1 (stereo not shown) [Example 279, 2-(4-{4-[2-(2,5-Dimethyl-pyrrolidin-1-yl)-2-oxo-ethyl]-2-fluoro-phenyl}-piperazin-1-yl)-N,N-diethyl-2-phenyl-acetamide] |
| 570 | CCN(CC)C(=O)C(c1ccccc1)N1CCN(c2ccc(CC(=O)N3CCCCC3c3cccnc3)cc2F)CC1 (stereo not shown) [Example 280, N,N-Diethyl-2-(4-{2-fluoro-4-[2-oxo-2-(3,4,5,6-tetrahydro-2H-[2,3′]bipyridinyl-1-yl)-ethyl]-phenyl}-piperazin-1-yl)-2-phenyl-acetamide] |
| 560 | CCC(CC)NC(=O)Cc1ccc(N2CCN(C(C(=O)N(CC)CC)c3ccccc3)CC2)c(F)c1 (stereo not shown) [Example 281, N,N-Diethyl-2-(4-{4-[(1-ethyl-propylcarbamoyl)-methyl]-2-fluoro-phenyl}-piperazin-1-yl)-2-phenyl-acetamide] |
| 940 | CCN(CC)C(=O)C(c1ccccc1)N1CCN(c2ccc(CC(=O)N3CCCC3C)cc2F)CC1 (stereo not shown) [Example 282, N,N-Diethyl-2-(4-{2-fluoro-4-[2-(2-methyl-pyrrolidin-1-yl)-2-oxo-ethyl]-phenyl}-piperazin-1-yl)-2-phenyl-acetamide] |
| 1200 | CCN(CC)C(=O)C(c1ccccc1)N1CCN(c2ccc(CC(=O)N3CCCC3)cc2F)CC1 (stereo not shown) [Example 283, N,N-Diethyl-2-{4-[2-fluoro-4-(2-oxo-2-pyrrolidin-1-yl-ethyl)-phenyl]-piperazin-1-yl}-2-phenyl-acetamide] |
| 104 | CCC(CC)C(=O)Nc1ccc(N2CCN(C(C(=O)N(C)C)c3ccccc3)CC2)c(F)c1 (stereo not shown) [Example 292, N-{4-[4-(Dimethylcarbamoyl-phenyl-methyl)-piperazin-1-yl]-3-fluoro-phenyl}-2-ethyl-butyramide] |
